Consider one compound from patent US20080075796A1, “Compositions and Methods for Controlling Insects” (TyraTech, Inc., priority 2003, published 2008).

One assay deals with T1, Or43a receptor (Drosophila melanogaster, UniProt P81917, L154V).
T1 construct: His (from vector pAc5.1/V5-His B) (C); expressed in transfected cells
Put plainly: cAMP production in Schneider cells expressing Or43a receptor. Type of assay: cell-based. On the procedure: Cells are grown on dishes and the media changed the day before the treatment. […] About 20 mL of insect saline is added, and cells are harvested by gentle scraping. An aliquot of the cells is counted by hemocytometer, and the cells are then centrifuged for about 5 minutes at about 1000 RPM. Cells are resuspended to give about 3×10^6 cells per mL. IBMX is added to about 200 μM. Then about 1 mL of cell suspension is aliquoted for treatment. Forskolin (cAMP inducing agent), tyramine or different composition candidates are added, and the cells are incubated at about 27° C. for about 10 minutes.
Treated cells are centrifuged at about 13000 g for about 10 seconds. The solution is aspirated and about 1 mL of about −20° C. 70% ethanol is added. The cell pellet is disrupted by vortexing and the samples placed at about −20° C. overnight. Following the ethanol extraction, cellular debris is pelleted by centrifugation at about 13000 g for about 5 minutes. The supernatant is transferred to a tube and lyophilized to dryness in a rotary speed-vac. The resulting extract is resuspended in about 100 μL TE and used for the cAMP assay.
The cAMP assay is based on competition binding between endogenous cAMP and ^3H-cAMP to a cAMP binding protein. The ^3H-cAMP Biotrak system (Amersham Biosciences) is used for this assay as per the manufacturer's instructions. Briefly, about 50 μL of the cellular extract is incubated with about 50 μL ^3H-cAMP and about 100 μL cAMP binding protein in an ice bath for about 2-4 hours. Charcoal (about 100 μL) is then added and the solution centrifuged for about 3 minutes at about 4° C. About 200 μL of the reaction mixture is removed and levels of ^3H-cAMP are determined by scintillation counting.
As such, the cells expressing olfactory receptors have a functionally active cAMP cascade.

Assay [1] has as its target T2, tyramine receptor (TyrR) (Drosophila melanogaster, UniProt P22270).
T2 sequence (P22270 27-601): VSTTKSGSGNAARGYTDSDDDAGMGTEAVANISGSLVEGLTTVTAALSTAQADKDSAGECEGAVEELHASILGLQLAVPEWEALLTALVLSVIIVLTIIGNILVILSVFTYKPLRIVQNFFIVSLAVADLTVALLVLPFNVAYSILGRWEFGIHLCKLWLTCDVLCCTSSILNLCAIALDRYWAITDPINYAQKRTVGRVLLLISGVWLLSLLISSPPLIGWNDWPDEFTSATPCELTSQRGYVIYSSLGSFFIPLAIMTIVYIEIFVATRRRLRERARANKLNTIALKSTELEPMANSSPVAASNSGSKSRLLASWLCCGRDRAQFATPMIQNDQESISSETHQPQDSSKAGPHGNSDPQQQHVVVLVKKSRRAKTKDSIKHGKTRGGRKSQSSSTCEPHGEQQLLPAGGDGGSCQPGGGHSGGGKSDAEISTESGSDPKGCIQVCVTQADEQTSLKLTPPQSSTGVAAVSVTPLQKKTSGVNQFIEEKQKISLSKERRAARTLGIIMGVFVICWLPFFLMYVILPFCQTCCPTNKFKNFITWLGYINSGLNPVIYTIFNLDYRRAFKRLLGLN
The assay is described as follows: Saturation binding of ^3H-tyramine to membranes from Schneider cells expressing tyramine receptor.
Description: (§1) A preliminary study to determine the optimum concentration of membrane protein for receptor binding activity is performed. […] After about 1 hr incubation at room temperature, reactions are terminated by filtration through GF/C filters (VWR), which have been previously soaked in about 0.3% polyethyleneimine (PEI). The filters are washed one time with about 4 ml ice cold Iris buffer and air dried before the retained radioactivity is measured using LSC. Binding data is analyzed by curve fitting (GraphPad software, Prism).
(§2) Receptor binding reactions are incubated for about 1 hr at room temperature (RT) in restricted light. Reactions are terminated by filtration through OF/C filters (VWR), which have been previously soaked in about 0.3% polyethyleneimine (PEI). The filters are washed one time with about 4 ml ice cold Tris buffer and air dried before retained radioactivity is measured using LSC. Binding data is analyzed by curve fitting (GraphPad software, Prism).

For assay [2], the target named is T2, tyramine receptor (TyrR). As to conditions: displacement of about 2 nM ^3H-tyramine.
Description: as §1, §2
The target of the next assay is T3, Or83b receptor (Drosophila melanogaster, UniProt Q9VNB5).
T3 construct: His (from vector pAc5.1/V5-His B) (C); expressed in transfected cells
T3 sequence (Q9VNB5 1-486): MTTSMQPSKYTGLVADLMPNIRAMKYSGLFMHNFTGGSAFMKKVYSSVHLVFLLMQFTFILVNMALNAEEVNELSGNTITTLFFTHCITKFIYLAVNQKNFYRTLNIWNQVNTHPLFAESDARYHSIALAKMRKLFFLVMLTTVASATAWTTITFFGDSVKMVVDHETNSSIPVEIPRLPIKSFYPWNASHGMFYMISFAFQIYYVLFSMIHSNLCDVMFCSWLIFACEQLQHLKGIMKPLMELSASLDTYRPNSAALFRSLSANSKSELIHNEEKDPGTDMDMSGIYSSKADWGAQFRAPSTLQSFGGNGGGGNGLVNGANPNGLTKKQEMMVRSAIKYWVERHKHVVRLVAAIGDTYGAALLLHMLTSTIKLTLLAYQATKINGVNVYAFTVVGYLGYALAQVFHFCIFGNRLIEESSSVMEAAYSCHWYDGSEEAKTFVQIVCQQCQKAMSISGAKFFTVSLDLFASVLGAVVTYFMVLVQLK
Put plainly: Saturation binding of ^3H-tyramine to membranes from Schneider cells expressing Or83b receptor. On the procedure:
To address whether Or83b receptor and Or43a receptor contain a specific binding site for tyramine, membranes expressing Or83b receptor or Or43a receptor are prepared from cells expressing either receptor, as described above, and used for competitive binding with ^3H-tyramine. The binding assay protocol is exactly as described for cells expressing TyrR, as described above.

Where “and” joins values, the source holds several entries; their conditions need not be identical. Equal values may be shown once. Read-outs that look alike come from different tables or passages of the source.

T1 sequence (P81917 whole entry L154V): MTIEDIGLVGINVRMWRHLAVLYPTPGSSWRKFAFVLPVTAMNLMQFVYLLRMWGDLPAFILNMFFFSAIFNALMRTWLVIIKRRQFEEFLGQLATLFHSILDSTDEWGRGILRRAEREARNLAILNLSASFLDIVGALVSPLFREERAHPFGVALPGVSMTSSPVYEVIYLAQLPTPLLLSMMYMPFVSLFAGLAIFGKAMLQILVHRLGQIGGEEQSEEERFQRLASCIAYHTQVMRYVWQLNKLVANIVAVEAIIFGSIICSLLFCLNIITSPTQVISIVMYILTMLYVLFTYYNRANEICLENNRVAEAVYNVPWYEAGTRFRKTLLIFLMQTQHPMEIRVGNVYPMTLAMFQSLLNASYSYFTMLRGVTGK

As usually defined, the Ki is a measure of affinity in units of concentration, obtained from inhibition or displacement. One may read the EC50 as the concentration needed to bring the measured effect to its halfway point. A lower EC50 goes with an effect from little substance. Usually Kd stands for the constant that tells how readily two partners part at equilibrium. `NCCc1ccc(O)cc1` [tyramine]: on Or43a receptor (agent alone, tyramine about 20 μM, LFO, BSO about 50 μg/ml, forskolin about 10 μM), the “change in cAMP levels” value is on record as “increase in cAMP levels”. For the same compound, the “change in cAMP levels, with forskolin” value at Or43a receptor (plus forskolin about 10 μM) is “increase in cAMP levels”. The Ki was 1.26 nM on tyramine receptor (TyrR) [1]; ~127 nM and 127 nM on tyramine receptor (TyrR) [2] (Ki); 96.9 nM at Or83b receptor. On tyramine receptor (TyrR) [1] (saturation binding, membranes expressing TyrR, listed as Tyramine), this compound came in with a Bmax of 0.679 pmol/mg protein. Also, the EC50 at tyramine receptor (TyrR) [2] (EC50 (concentration at which binding is inhibited by 50%)) was ~305 nM and 305 nM. Also, at Or83b receptor, the Kd was about 96.9 nM.
